Reference: patent US20110217715A1, “GENE EXPRESSION IN DUCHENNE MUSCULAR DYSTROPHY” (CHILDREN'S HOSPITAL MEDICAL CENTER, priority 2008, published 2011)

Test system: mRNA expression in peripheral blood of individuals with DMD
Test: Whole-blood gene expression microarray: DMD administered deflazacort vs DMD administered prednisone
Assay type: in vivo, human
Protocol: Fifteen ml of blood was collected from each individual into 6 PAXgene® Vacutainer® tubes (PreAnalytiX, Germany) by antecubital fossa venipuncture. PAXgene® tubes contain a proprietary reagent that immediately stabilizes RNA, thus reducing RNA degradation and minimizing gene expression changes following phlebotomy. The tubes were then inverted 20 times, then remained undisturbed for 2 h at room temperature (about 19° C. to about 22° C.), and then stored at -70° C. until processed. Total RNA was isolated using the Paxgene® blood RNA kit (PreAnalytiX, Germany) according to the manufacturers instructions. The RNA isolated is from all cells in whole blood. Typical yields of total RNA isolated from about 7.5 ml of human whole blood were between 10 μg RNA and 40 μg RNA. RNA quality and purity was analyzed by spectrophotometry using the Nanodrop ND-1000, and RNA integrity was analyzed using the Agilent 2100 Bioanalyzer. […] Sample labeling, hybridization to chips, and image scanning were performed using standard Affymetrix protocols. For each whole blood sample from control individuals and individuals with DMD, total RNA was labeled using the One-Cycle Target Labeling protocol and hybridized to the arrays. […] Double-stranded cDNA synthesis, biotin-labeled cRNA synthesis, and cRNA fragmentation were performed according to the Affymetrix GeneChip Eukaryotic Expression Analysis protocol. The labeled, fragmented cRNA (15 μg) was hybridized at 45° C. overnight. After hybridization, the array was washed and stained. The arrays were scanned with an argon-ion laser at λ=570 nm, with a resolution of 3 μm/pixel (Affymetrix, Inc.). After scanning the array, the raw probe level values for each probe were saved in Affymetrix.cel files. […] Statistical analyses, including t-test analyses, unsupervised hierarchical clustering, and principal component analyses were conducted using Genespring 7.2 software ([…]® 7, Silicon Genetics, Redwood City Calif.). […] Corrections for multiple comparisons used a Benjamini-Hochberg False Discovery Rate (FDR) of 0.05, disclosed in Tang et al., J Cereb Blood Flow Metab 26 (2006) 1089, which is expressly incorporated by reference herein in its entirety. […] Sample processing and array hybridization, probe-level data analysis, and statistical analysis were identical to Example 1.

CC(=O)OCC(=O)[C@@]12N=C(C)O[C@@H]1C[C@H]1[C@@H]3CCC4=CC(=O)C=C[C@]4(C)[C@H]3[C@@H](O)C[C@@]12C [deflazacort]
p-value (t-test, deflazacort vs prednisone) (deflazacort vs. prednisone, NM_004862, Nucleic Acid No. 2094): 0.0123 | p-value (t-test, deflazacort vs. prednisone) (deflazacort vs. prednisone, NM_005306, Nucleic Acid No. 2036): 0.00696 | p-value (t-test, deflazacort vs. prednisone) (deflazacort vs. prednisone, NM_005345, Nucleic Acid No. 275): 0.0354 | p-value (deflazacort vs. prednisone, NM_005461, Nucleic Acid No. 1310): 0.0317 | p-value (deflazacort vs. prednisone, NM_005502, Nucleic Acid No. 1893): 0.00709 | p-value (t-test, deflazacort vs prednisone) (deflazacort vs. prednisone, NM_005569, Nucleic Acid No. 2093): 0.0261 | p-value (t-test, deflazacort vs prednisone) (deflazacort vs. prednisone, NM_005574, Nucleic Acid No. 2095): 0.0476 | p-value (deflazacort vs. prednisone, NM_005720, Nucleic Acid No. 1912): 0.0485 | p-value (deflazacort vs. prednisone, NM_005890, Nucleic Acid No. 2024): 0.0113 | p-value (t-test, deflazacort vs. prednisone) (deflazacort vs. prednisone, NM_006018, Nucleic Acid No. 2035): 0.000507 | p-value (t-test, deflazacort vs. prednisone) (deflazacort vs. prednisone, NM_006332, Nucleic Acid No. 2055): 0.0414 | p-value (deflazacort vs. prednisone, NM_006854, Nucleic Acid No. 2078): 0.0129 | p-value (t-test, deflazacort vs prednisone) (deflazacort vs. prednisone, NM_006863, Nucleic Acid No. 2092): 0.00957 | p-value (t-test, deflazacort vs. prednisone) (deflazacort vs. prednisone, NM_014179, Nucleic Acid No. 2051): 0.0407 | p-value (t-test, deflazacort vs. prednisone) (deflazacort vs. prednisone, NM_014339, Nucleic Acid No. 2058): 0.0463 | p-value (t-test, deflazacort vs prednisone) (deflazacort vs. prednisone, NM_014656, Nucleic Acid No. 2079): 0.00329 | p-value (deflazacort vs. prednisone, NM_018690, Nucleic Acid No. 1907): 0.00658 | p-value (deflazacort vs. prednisone, NM_019043, Nucleic Acid No. 1040): 0.0288 | p-value (t-test, deflazacort vs. prednisone) (deflazacort vs. prednisone, NM_020179, Nucleic Acid No. 2016): 0.0196 | p-value (t-test, deflazacort vs. prednisone) (deflazacort vs. prednisone, NM_020386, Nucleic Acid No. 2046): 0.0129 | p-value (deflazacort vs. prednisone, NM_152641, Nucleic Acid No. 1576): 0.0457 | p-value (t-test, deflazacort vs. prednisone) (deflazacort vs. prednisone, R38084, Nucleic Acid No. 2026): 0.0133 | p-value (deflazacort vs. prednisone, S72848, Nucleic Acid No. 1686): 0.0226 | p-value (t-test, deflazacort vs prednisone) (deflazacort vs. prednisone, T85248, Nucleic Acid No. 1311): 0.0383 | p-value (deflazacort vs. prednisone, U48734, Nucleic Acid No. 1898): 0.0349 | p-value (t-test, deflazacort vs. prednisone) (deflazacort vs. prednisone, U65590, Nucleic Acid No. 2061): 0.00419 | p-value (deflazacort vs. prednisone, U70064, Nucleic Acid No. 414): 0.0255 | p-value (t-test, deflazacort vs. prednisone) (deflazacort vs. prednisone, U81501, Nucleic Acid No. 2021): 0.0425 | p-value (t-test, deflazacort vs prednisone) (deflazacort vs. prednisone, U93240, Nucleic Acid No. 2086): 0.0114 | p-value (deflazacort vs. prednisone, U97075, Nucleic Acid No. 1949): 0.0264 | p-value (t-test, deflazacort vs. prednisone) (deflazacort vs. prednisone, W27419, Nucleic Acid No. 2052): 0.0306 | p-value (t-test, deflazacort vs. prednisone) (deflazacort vs. prednisone, W93728, Nucleic Acid No. 1590): 0.0103 | p-value (deflazacort vs. prednisone, W95007, Nucleic Acid No. 1896): 0.0111 | p-value (t-test, deflazacort vs. prednisone) (deflazacort vs. prednisone, X51757, Nucleic Acid No. 2050): 0.0352 | p-value (gene M-RIP, Genbank BF515158, Nucleic Acid No. 2128): 0.0466 | p-value (gene MLKL, Genbank AA706818, Nucleic Acid No. 2125): 0.031 | p-value (gene MLL3, Genbank AI057455, Nucleic Acid No. 2126): 0.0474 | p-value (gene MLLT2, Genbank AA703523, Nucleic Acid No. 2127): 0.0149 | p-value (gene MLSTD1, Genbank NM_018099, Nucleic Acid No. 1848): 0.0331 | p-value (gene MS4A7, Genbank AF237916, Nucleic Acid No. 2129): 0.0291 | p-value (gene MTF1, Genbank NM_005955, Nucleic Acid No. 2130): 5.84E−05 | p-value (gene MX2, Genbank NM_002463, Nucleic Acid No. 2131): 0.0283 | p-value (gene MYADM, Genbank BE908995, Nucleic Acid No. 2132): 0.0206 | p-value (gene MYLIP, Genbank AW292746, Nucleic Acid No. 2133): 0.00321 | p-value (gene MYO1F, Genbank BF740152, Nucleic Acid No. 2134): 0.0266 | p-value (gene N4BP1, Genbank AB014515, Nucleic Acid No. 2135): 0.0291 | p-value (gene NCF2, Genbank BC001606, Nucleic Acid No. 2136): 0.0348 | p-value (gene NCOA1, Genbank BF576458, Nucleic Acid No. 2137): 0.00399 | p-value (gene NCOA6, Genbank AF128458, Nucleic Acid No. 926): 0.0221 | p-value (gene NDE1, Genbank BF973292, Nucleic Acid No. 2138): 0.024 | p-value (gene NDE1, Genbank NM_017668, Nucleic Acid No. 2139): 0.0358 | p-value (gene NFIC, Genbank AW134798, Nucleic Acid No. 2140): 0.0141 | p-value (gene NKTR, Genbank AI880383, Nucleic Acid No. 2141): 0.0222 | p-value (gene NOTCH2, Genbank AA291203, Nucleic Acid No. 2142): 0.00739 | p-value (gene NOTCH2, Genbank AF308601, Nucleic Acid No. 1046): 0.0265 | p-value (gene NOTCH2NL, Genbank AW516297, Nucleic Acid No. 2143): 0.0362 | p-value (gene NSF, Genbank AK025172, Nucleic Acid No. 2144): 0.0411 | p-value (gene OLIG1, Genbank AL355743, Nucleic Acid No. 1399): 0.00583 | p-value (gene OSTF1, Genbank NM_012383, Nucleic Acid No. 2145): 0.0203 | p-value (gene PACSIN2, Genbank NM_007229, Nucleic Acid No. 2146): 0.0409 | p-value (gene PAPD4, Genbank AW104325, Nucleic Acid No. 2147): 0.00878 | p-value (gene PARP9, Genbank AI738416, Nucleic Acid No. 2148): 0.0394 | p-value (gene PARVG, Genbank AL355092, Nucleic Acid No. 2149): 0.0293 | p-value (gene PB1, Genbank H79538, Nucleic Acid No. 2150): 0.0371 | p-value (gene PBX2, Genbank BE397715, Nucleic Acid No. 2151): 0.0221 | p-value (gene PCBP2, Genbank AW025150, Nucleic Acid No. 2152): 0.0394 | p-value (gene PDLIM5, Genbank NM_006457, Nucleic Acid No. 2153): 0.0238
